Test [1] concerns the target T1, GABAA receptor, benzodiazepine (BZD) binding site (rat cortical membrane).
T1 construct: native receptor in cortical membrane of male Sprague-Dawley rats
Put plainly: radioligand saturation binding, centrifugation separation.

The target is the same in test [2]. Put plainly: [3H]-flumazenil competition binding.
The target is the same in test [3]. Briefly: [3H]-flumazenil competition binding; […] used for nonspecific binding.

The values below come from PMC3977056, “Optimum Conditions of Radioligand Receptor Binding Assay of Ligands of Benzodiazepine Receptors” (Iranian Journal of Pharmaceutical Research : IJPR, 2014).

By Kd is commonly meant the concentration at which binding is half-saturated. The low end stands for tighter binding, the high end for weaker binding. In test [1], `CCOC(=O)c1ncn2c1CN(C)C(=O)c1cc(F)ccc1-2` [[3H]-flumazenil] displayed a Kd of 1.35 ± 0.316 nM.
As usually defined, the Ki is a dissociation constant, usually derived from enzyme kinetics or from competition with a known ligand. Higher therefore signals a looser hold on the target. Regarding `Cc1cc(=O)n2nc(-c3ccccc3)oc2n1` [compound A, 2-phenyl-5-oxo-7-methyl-1,3,4-oxadiazolo[a,2,3]-pyrimidine], the inhibition constant Ki in test [2] was 1.9 nM.
`CN1C(=O)CN=C(c2ccccc2)c2cc(Cl)ccc21` [diazepam] had a Ki in test [3] of 1.53 nM.
